Results as given in patent US20140154332A1, “FORMULAS COMPRISING HIGHLY SOLUBLE ELEMENTS AND VITAMIN FOR THE PREVENTION AND AMELIORATION OF OSTEOPOROSIS” (SINOVEDA CANADA, INC., priority 2011, published 2014).

Legend:
[1] = humans; cited from earlier work
[2] = dual isotope techniques; cited from earlier work
[3] = Calcium, magnesium and zinc balance study in rats receiving calcium free diet (cumulative net percentage, body weight, plasma levels); conditions: for Cumulative net percentage of calcium / Cumulative net percentage of magnesium / Cumulative net percentage of zinc: n = 5 per group
Excerpt: (§1) Male Sprague-Dawley rats (about 6-7 weeks), with an initial weight between 220 g to 250 g, were randomly divided into different treatment groups. All the rats were housed in individual metabolic cages in a temperature-controlled room. Each rat received free access to the normal diet (Table 34) before the experiment. Both normal and calcium free diets (Table 34) were used in this set of studies. De-ionized water was provided ad libitum. All the rats were weighed before treatment.
(§2) Two sets of studies were performed: a normal diet and calcium free diet. In each study, there were seven treatment groups. […] Rats participating in the normal diet study received normal diet ad libitum throughout. Rats participating in the group of calcium free diet received the calcium free food ad libitum starting five days before and throughout treatment. In both study groups, animals received one dose a day for five days. Amounts of calcium, magnesium and zinc in individual formulation and in each diet were determined using ICP-OES. Values of dosage and dietary intake were measured for the calculation of elemental balance. […] Daily elemental dosages, similar to that of human's, are 53.14 mg/kg for calcium, 0.38 to 55 mg/kg/day for magnesium and 0.017 to 2.5 mg/kg/day for zinc. […] The vehicle for preparing each dose was de-ionized water. The concentration of calcium in all dosage preparations was 15.94 mg/mL. One mL of each preparation was administered by gavage. Body weight, elemental dosage and diet consumption were recorded daily.
(§3) Animals were housed individually in a metabolic cage five days before the study. Food consumption was evaluated daily. Urine and feces were collected daily for four days and the content of calcium, magnesium and zinc was determined. On Day 5, each animal received its treatment. These treatments were administered once a day for four days. After the last treatment, each animal was anesthetized shortly before peak elemental blood concentration was achieved. Blood was collected using a heparinized syringe via cardiac puncture. Immediately after blood collection, the animal was then sacrificed with an overdose of isoflourane. Each blood sample was centrifuged at 1900 rpm at room temperature; plasma was harvested and stored at −20° C. until analysis. Urine was measured daily; it was diluted with de-ionized water, filtered and an aliquot was stored at −20° C. until analysis. Daily fecal output was collected and lyophilized. Each sample was weighed and digested using a mixture of three volume of nitric acid and one volume of perchloric acid. For every gram of dried feces, 10 mL of acid mixture was added. Each sample was digested for three days. The volume of the digested sample was measured and an aliquot of the digest was stored at −20° C. until analysis. The content of calcium, magnesium and zinc in plasma, feces and urine were determined using ICP-OES.
(§4) Daily calcium balance was calculated using equation 1:
(§5) Ca Balance=total Ca intake(dose and dietary intake)−Ca excreted in urine−Ca excreted in feces (1)
(§6) While, percentage of Ca balance was determined using equation 2:
(§7) % Ca balance=Ca balance/(total Ca intake)×100% (2)
(§8) Cumulated calcium balance and % cumulated net calcium balance were calculated using equations (1) and (2), except, the sum of daily intake and excretion was used for calculation. The balance for magnesium and zinc was also calculated using the concept of equations (1) and (2). Cumulated elemental balance and % cumulated net elemental balance were calculated in a similar fashion as described above.
(§9) All results were analyzed using two-way ANOVA. […] The data are presented as mean±S.D. and mean±S.E.M. in tables and figures, respectively.

[4] = Calcium, magnesium and zinc balance study in rats receiving normal diet (cumulative net percentage, body weight, plasma levels); conditions: for Body weight of rats: normal calcium diet, n = 5; for Cumulative net percentage of calcium / Cumulative net percentage of zinc / Net accumulative percentage of magnesium: normal diet, n = 5 per group
Excerpt: as §1, §2, §3, §4, §5, §6, §7, §8, §9

[5] = 25 mg calcium load, 45Ca; cited from earlier work
[6] = rats; cited from earlier work

O=C([O-])[O-].[Ca+2] [calcium carbonate]
average amount absorbed [1]: 24%

[O]=[Zn] [zinc oxide]
bioavailability of zinc [2]: approximately 24%

Calcium Acetate [Ca ACE]
Cumulative net percentage of calcium ([3]; Day 1, mean ± S.D.): −30.6 ± 51.3%
Cumulative net percentage of magnesium ([3]; Day 1, mean ± S.D.): −197.2 ± 105.2%
Cumulative net percentage of zinc ([3]; Day 1, mean ± S.D.): −107.1 ± 85.5%
Body weight of rats ([3]; Day 1, n = 5): 202.4 ± 9.3 g
Cumulative net percentage of calcium ([3]; Day 2, mean ± S.D.): −9.88 ± 26.5%
Cumulative net percentage of magnesium ([3]; Day 2, mean ± S.D.): −150.4 ± 88.9%
Cumulative net percentage of zinc ([3]; Day 2, mean ± S.D.): −77.7 ± 59.0%
Body weight of rats ([3]; Day 2, n = 5): 194.8 ± 9.3^$ g
Cumulative net percentage of calcium ([3]; Day 3, mean ± S.D.): 4.88 ± 24.0%
Cumulative net percentage of magnesium ([3]; Day 3, mean ± S.D.): −115.3 ± 62.7%
Cumulative net percentage of zinc ([3]; Day 3, mean ± S.D.): −65.7 ± 66.7%
Body weight of rats ([3]; Day 3, n = 5): 196.8 ± 10.9 g
Cumulative net percentage of calcium ([3]; Day 4, mean ± S.D.): 11.1 ± 20.0%
Cumulative net percentage of magnesium ([3]; Day 4, mean ± S.D.): −93.6 ± 37.2%
Cumulative net percentage of zinc ([3]; Day 4, mean ± S.D.): −50.5 ± 46.4%
Body weight of rats ([3]; Day 4, n = 5): 193.4 ± 11.9^$ g
Body weight of rats ([3]; Day 5, n = 5): 188.0 ± 12.2^$ g
magnesium balance ([3]; rats): net loss of magnesium
Body weight of rats ([4]; Day 1, mean ± S.D.): 242.0 ± 7.4 g
Body weight of rats ([4]; Day 2, mean ± S.D.): 237.0 ± 12.5 g
Body weight of rats ([4]; Day 3, mean ± S.D.): 239.2 ± 13.9 g
Body weight of rats ([4]; Day 4, mean ± S.D.): 238.6 ± 13.9 g
Body weight of rats ([4]; Day 5, mean ± S.D.): 244.0 ± 12.8 g
Cumulative net percentage of calcium ([4]; Day 1, mean ± S.D.): 14.4 ± 24.0%
Cumulative net percentage of zinc ([4]; Day 1, mean ± S.D.): 27.5 ± 16.0^%
Net accumulative percentage of magnesium ([4]; Day 1, mean ± S.D.): 16.7 ± 17.2^%
Cumulative net percentage of calcium ([4]; Day 2, mean ± S.D.): 26.9 ± 9.0%
Cumulative net percentage of zinc ([4]; Day 2, mean ± S.D.): 40.9 ± 7.3%
Net accumulative percentage of magnesium ([4]; Day 2, mean ± S.D.): 29.9 ± 3.8%
Cumulative net percentage of calcium ([4]; Day 3, mean ± S.D.): 30.3 ± 4.9%
Cumulative net percentage of zinc ([4]; Day 3, mean ± S.D.): 45.6 ± 5.9%
Net accumulative percentage of magnesium ([4]; Day 3, mean ± S.D.): 34.3 ± 2.5%
Cumulative net percentage of calcium ([4]; Day 4, mean ± S.D.): 31.9 ± 3.0%
Cumulative net percentage of zinc ([4]; Day 4, mean ± S.D.): 48.4 ± 4.4%
Net accumulative percentage of magnesium ([4]; Day 4, mean ± S.D.): 37.7 ± 2.7%
Bioavailability of calcium [5]: 45%

Magnesium gluconate
bioavailability of magnesium [6]: highest value

calcium ascorbate
Bioavailability of calcium [5]: 70%
